Experimental data as given in the NIST ThermoML archive (doi:10.1016/j.jct.2018.10.007).

Conditions: Liquid, Rate of evaporation

CCCCCC[P+](CCCCCC)(CCCCCC)CCCCCC.F[P-](F)(F)(F)(F)F [tetrahexylphosphonium hexafluorophosphate]
Conditions | vapor or sublimation pressure [kPa]
395.83 K | 2e-10
400.74 K | 3.8e-10
405.65 K | 7e-10
408.42 K | 1e-09
410.61 K | 1.3e-09
413.37 K | 1.9e-09
415.59 K | 2.4e-09
418.31 K | 3.4e-09
423.24 K | 5.9e-09
428.21 K | 1e-08
430.65 K | 1.4e-08
433.2 K | 1.8e-08
435.66 K | 2.4e-08
438.23 K | 3.1e-08
440.69 K | 4e-08
443.24 K | 5e-08
445.73 K | 6.7e-08
448.28 K | 8.5e-08
451.57 K | 1.23e-07
453.41 K | 1.42e-07

CCCCCCC[P+](CCCCCC)(CCCCCC)CCCCCC.O=S(=O)([N-]S(=O)(=O)C(F)(F)F)C(F)(F)F [trihexylheptylphosphonium bis(trifluoromethanesulfonyl)imide]
Conditions | vapor or sublimation pressure [kPa]
408.53 K | 6.2e-10
410.91 K | 8.8e-10
413.56 K | 1.1e-09
415.89 K | 1.6e-09
418.57 K | 2.1e-09
420.85 K | 2.8e-09
423.58 K | 3.8e-09
425.82 K | 4.9e-09
428.58 K | 6.7e-09
430.8 K | 8.5e-09
433.58 K | 1.2e-08
435.79 K | 1.5e-08
438.58 K | 2e-08
440.78 K | 2.5e-08
443.58 K | 3.4e-08
445.8 K | 4.2e-08
448.56 K | 5.8e-08
450.83 K | 7e-08
453.59 K | 9.5e-08
455.88 K | 1.16e-07

CCCCCCCCCCCCCC[P+](CCCCCC)(CCCCCC)CCCCCC.O=S(=O)([N-]S(=O)(=O)C(F)(F)F)C(F)(F)F
Conditions | vapor or sublimation pressure [kPa]
399.34 K | 2.3e-11
404.33 K | 4.6e-11
405.52 K | 5.3e-11
407.95 K | 7.1e-11
408.01 K | 7.5e-11
409.24 K | 8.6e-11
409.33 K | 8.9e-11
410.52 K | 1e-10
412.96 K | 1.4e-10
413 K | 1.5e-10
413.93 K | 1.7e-10
414.15 K | 1.7e-10
414.24 K | 1.7e-10
414.33 K | 1.7e-10
415.52 K | 2e-10
417.97 K | 2.9e-10
418 K | 2.7e-10
419.13 K | 3.2e-10
419.16 K | 3.3e-10
419.24 K | 3.1e-10
419.33 K | 3.2e-10
420.52 K | 3.8e-10
422.97 K | 5.4e-10
423.01 K | 5.1e-10
423.46 K | 5.2e-10
424.17 K | 6.4e-10
424.24 K | 6.4e-10
424.31 K | 6.1e-10
425.53 K | 7.3e-10
427.91 K | 9.2e-10
427.98 K | 1e-09
428.01 K | 1e-09
429.18 K | 1e-09
429.24 K | 1e-09
429.26 K | 1.1e-09
430.53 K | 1.3e-09
432.25 K | 1.5e-09
433 K | 1.8e-09
433.02 K | 1.7e-09
434.17 K | 2e-09
434.2 K | 1.9e-09
434.24 K | 1.9e-09
435.54 K | 2.3e-09
436.8 K | 2.6e-09
438.01 K | 3.1e-09
438.02 K | 3e-09
439.04 K | 3.4e-09
439.21 K | 3.6e-09
439.23 K | 3.4e-09
440.54 K | 4e-09
441.79 K | 4.6e-09
443.01 K | 5.2e-09
443.03 K | 5.2e-09
443.88 K | 5.8e-09
444.2 K | 5.9e-09
444.26 K | 6.3e-09
445.56 K | 6.9e-09
446.75 K | 8e-09
448.02 K | 8.9e-09
448.07 K | 8.7e-09
449.16 K | 1e-08
449.26 K | 1e-08
450.57 K | 1.2e-08
451.67 K | 1.4e-08
453.06 K | 1.4e-08
454.09 K | 1.7e-08
454.27 K | 1.9e-08
456.51 K | 2.2e-08
458.95 K | 2.8e-08

CCCCCCCCCCCCCC[P+](CCCC)(CCCC)CCCC.O=S(=O)([N-]S(=O)(=O)C(F)(F)F)C(F)(F)F
Conditions | vapor or sublimation pressure [kPa]
393.28 K | 1.6e-09
395.67 K | 2e-09
398.14 K | 2.9e-09
400.54 K | 4.1e-09
403.07 K | 5.3e-09
405.5 K | 7.3e-09
408.02 K | 1e-08
410.51 K | 1.4e-08
413.04 K | 1.8e-08
415.54 K | 2.5e-08
418.06 K | 3.3e-08
420.57 K | 4.4e-08
423.09 K | 6e-08
425.61 K | 7.6e-08
428.14 K | 1.03e-07
430.65 K | 1.35e-07
433.18 K | 1.7e-07
435.69 K | 2.23e-07
438.18 K | 2.92e-07
440.71 K | 3.73e-07

CCCCCCCC[P+](CCCCCC)(CCCCCC)CCCCCC.F[P-](F)(F)(F)(F)F [trihexyloctylphosphonium hexafluorophosphate]
Conditions | vapor or sublimation pressure [kPa]
408.34 K | 3.4e-10
410.85 K | 4.4e-10
410.96 K | 4.8e-10
413.36 K | 6.3e-10
415.82 K | 8.4e-10
415.89 K | 8e-10
418.37 K | 1.1e-09
420.79 K | 1.5e-09
420.83 K | 1.5e-09
423.37 K | 2e-09
425.75 K | 2.7e-09
425.79 K | 2.7e-09
428.38 K | 3.6e-09
430.75 K | 4.6e-09
430.81 K | 4.7e-09
433.38 K | 6.1e-09
435.72 K | 8e-09
435.73 K | 7.9e-09
438.4 K | 1.1e-08
440.74 K | 1.4e-08
443.39 K | 1.8e-08
445.76 K | 2.3e-08
448.39 K | 3e-08
450.79 K | 3.9e-08
450.8 K | 3.8e-08
453.43 K | 5.1e-08
455.83 K | 6.5e-08
455.85 K | 6.4e-08

CCCCCCCC[P+](CCCCCCCC)(CCCCCCCC)CCCCCCCC.[Cl-] [tetraoctylphosphonium chloride]
Conditions | vapor or sublimation pressure [kPa]
408.38 K | 1.5e-10
410.9 K | 2.3e-10
413.32 K | 2.9e-10
413.46 K | 3.3e-10
415.87 K | 4.2e-10
418.26 K | 5.5e-10
418.44 K | 5.9e-10
420.79 K | 7.9e-10
423.23 K | 1e-09
423.41 K | 1.2e-09
425.8 K | 1.5e-09
428.2 K | 2e-09
428.36 K | 2e-09
430.73 K | 2.7e-09
433.18 K | 3.8e-09
433.31 K | 3.7e-09
435.74 K | 5e-09
438.21 K | 6.7e-09
438.28 K | 6.6e-09
440.77 K | 8.8e-09
443.21 K | 1.2e-08
443.3 K | 1.2e-08
445.8 K | 1.5e-08
448.27 K | 2.1e-08
448.33 K | 2e-08
450.84 K | 2.6e-08
453.31 K | 3.9e-08
453.36 K | 3.4e-08
455.89 K | 4.6e-08
458.4 K | 6.2e-08

CCCCCC[P+](CCCCC)(CCCCCC)CCCCCC.F[P-](F)(F)(F)(F)F [trihexylpentylphosphonium hexafluorophosphate]
Conditions | vapor or sublimation pressure [kPa]
403.41 K | 5e-10
405.89 K | 6.6e-10
408.27 K | 8.8e-10
410.78 K | 1.2e-09
413.19 K | 1.6e-09
415.69 K | 2.1e-09
418.15 K | 2.8e-09
420.65 K | 3.7e-09
423.13 K | 4.8e-09
425.62 K | 6.5e-09
428.15 K | 8.5e-09
430.63 K | 1.1e-08
433.15 K | 1.4e-08
435.65 K | 1.8e-08
438.17 K | 2.4e-08
440.7 K | 3.1e-08
443.21 K | 3.9e-08
445.73 K | 5.1e-08
448.25 K | 6.5e-08
450.79 K | 8.3e-08

CCCCCCC[P+](CCCCCC)(CCCCCC)CCCCCC.F[P-](F)(F)(F)(F)F [trihexylheptylphosphonium hexafluorophosphate]
Conditions | vapor or sublimation pressure [kPa]
405.87 K | 3.6e-10
408.4 K | 4.9e-10
410.8 K | 6.7e-10
413.34 K | 9e-10
415.74 K | 1.2e-09
418.27 K | 1.6e-09
420.69 K | 2.2e-09
423.22 K | 2.8e-09
425.68 K | 3.8e-09
428.2 K | 4.9e-09
430.66 K | 6.5e-09
433.19 K | 8.4e-09
435.68 K | 1.1e-08
438.21 K | 1.5e-08
440.7 K | 1.9e-08
443.24 K | 2.5e-08
445.74 K | 3.1e-08
448.28 K | 4.2e-08
450.97 K | 5.3e-08
453.32 K | 6.9e-08

CCCCCC[P+](CCCCCC)(CCCCCC)CCCCCC.[Br-] [tetrahexylphosphonium bromide]
Conditions | vapor or sublimation pressure [kPa]
400.93 K | 3.7e-10
403.37 K | 5.3e-10
403.43 K | 5e-10
408.28 K | 9.5e-10
408.37 K | 9.4e-10
410.79 K | 1.2e-09
410.8 K | 1.3e-09
410.82 K | 1.3e-09
413.22 K | 1.7e-09
413.3 K | 1.7e-09
415.71 K | 2.1e-09
415.72 K | 2.2e-09
415.78 K | 2.3e-09
418.18 K | 2.9e-09
418.27 K | 2.9e-09
420.76 K | 3.9e-09
423.16 K | 5.2e-09
423.23 K | 5.4e-09
425.66 K | 6.9e-09
425.67 K | 6.8e-09
425.75 K | 6.8e-09
428.16 K | 8.8e-09
428.22 K | 8.9e-09
430.73 K | 1.2e-08
433.18 K | 1.5e-08
433.24 K | 1.5e-08
435.67 K | 2e-08
435.68 K | 2e-08
435.75 K | 2e-08
438.21 K | 2.5e-08
438.25 K | 2.6e-08
440.7 K | 3.3e-08
440.72 K | 3.3e-08
440.77 K | 3.4e-08
443.24 K | 4.2e-08
443.29 K | 4.3e-08
445.74 K | 5.5e-08
445.75 K | 5.5e-08
445.79 K | 5.8e-08
448.3 K | 7.2e-08
448.31 K | 7.1e-08
450.8 K | 9.1e-08
450.81 K | 9e-08
